This note sets out measurements from US20130303509A1, “NAMPT INHIBITORS” (AbbVie Inc., priority 2012, published 2013).

The term IC50 denotes the midpoint of a concentration-inhibition curve.

The assay relates to PC3 cells. In words: NAMPT Cell Proliferation Assay. As to conditions: Homo sapiens, PC-3, 120 h, 5 days incubation, cell viability by Cell Titer Glo. The class given is cell-based. The method in brief: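 Seeded at 500 cells/well in RPMI with 10% heat-inactivated FBS and left to attach overnight at 37° C, 5% CO2. Compounds were added as 10-fold dilutions […] for 5 days, then viability was read by CellTiter-Glo. IC50s came from sigmoidal fits of percent inhibition.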

The structures appear in SMILES notation.

`O=C(Nc1ccc(C2CCN(C(=O)c3ccoc3)CC2)cc1)C1CN(c2cccnc2)C1` [Example 104, N-{4-[1-(furan-3-ylcarbonyl)piperidin-4-yl]phenyl}-1-(pyridin-3-yl)azetidine-3-carboxamide] showed an IC50 of 0.18 nM.

`O=C(Nc1ccc(C2CCN(C(=O)CN3CCCC3)CC2)cc1)C1CN(c2cccnc2)C1` [Example 105, 1-(pyridin-3-yl)-N-{4-[1-(pyrrolidin-1-ylacetyl)piperidin-4-yl]phenyl}azetidine-3-carboxamide] had an IC50 of 6.17 nM.

`O=C1CC[C@H](C(=O)N2CCC(c3ccc(NC(=O)C4CN(c5cccnc5)C4)cc3)CC2)N1` [Example 106, N-{4-[1-(5-oxo D-prolyl)piperidin-4-yl]phenyl}-1-(pyridin-3-yl)azetidine-3-carboxamide] had an IC50 of 61.8 nM.

For `CN(C)CCC(=O)N1CCC(c2ccc(NC(=O)C3CN(c4cccnc4)C3)cc2)CC1` [Example 107, N-{4-[1-(N,N-dimethyl-beta-alanyl)piperidin-4-yl]phenyl}-1-(pyridin-3-yl)azetidine-3-carboxamide], inhibition was half-maximal at 6.88 nM (IC50).

Compound `O=C(Nc1ccc(C2CCN(C(=O)c3nccs3)CC2)cc1)C1CN(c2cccnc2)C1` [Example 108, 1-(pyridin-3-yl)-N-{4-[1-(1,3-thiazol-2-ylcarbonyl)piperidin-4-yl]phenyl}azetidine-3-carboxamide] yielded an IC50 of 0.13 nM.

Turning to `O=C(Nc1ccc(C2CCN(C(=O)c3ccsc3)CC2)cc1)C1CN(c2cccnc2)C1` [Example 109, 1-(pyridin-3-yl)-N-{4-[1-(thiophen-3-ylcarbonyl)piperidin-4-yl]phenyl}azetidine-3-carboxamide], the IC50 came to 0.66 nM.

Compound `CC1(C(=O)N2CCC(c3ccc(NC(=O)C4CN(c5cccnc5)C4)cc3)CC2)CC1` [Example 110, N-(4-{1-[(1-methylcyclopropyl)carbonyl]piperidin-4-yl}phenyl)-1-(pyridin-3-yl)azetidine-3-carboxamide] registered an IC50 of 0.26 nM.

The compound `Cc1ccsc1C(=O)N1CCC(c2ccc(NC(=O)C3CN(c4cccnc4)C3)cc2)CC1` [Example 111, N-(4-{1-[(3-methylthiophen-2-yl)carbonyl]piperidin-4-yl}phenyl)-1-(pyridin-3-yl)azetidine-3-carboxamide] had an IC50 of 0.64 nM.

Regarding `O=C(Nc1ccc(C2CCN(C(=O)CCC(F)(F)F)CC2)cc1)C1CN(c2cccnc2)C1` [Example 112, 1-(pyridin-3-yl)-N-{4-[1-(4,4,4-trifluorobutanoyl)piperidin-4-yl]phenyl}azetidine-3-carboxamide], the IC50 stood at 0.76 nM.

In turn, `CN1CCN(CC(=O)N2CCC(c3ccc(NC(=O)C4CN(c5cccnc5)C4)cc3)CC2)CC1` [Example 113, N-(4-{1-[(4-methylpiperazin-1-yl)acetyl]piperidin-4-yl}phenyl)-1-(pyridin-3-yl)azetidine-3-carboxamide] gave an IC50 of 6.34 nM.

Compound `O=C1CC[C@@H](C(=O)N2CCC(c3ccc(NC(=O)C4CN(c5cccnc5)C4)cc3)CC2)N1` [Example 114, N-{4-[1-(5-oxo-L-prolyl)piperidin-4-yl]phenyl}-1-(pyridin-3-yl)azetidine-3-carboxamide] had an IC50 of 18.1 nM.

`CCOCCC(=O)N1CCC(c2ccc(NC(=O)C3CN(c4cccnc4)C3)cc2)CC1` [Example 115, N-{4-[1-(3-ethoxypropanoyl)piperidin-4-yl]phenyl}-1-(pyridin-3-yl)azetidine-3-carboxamide] yielded an IC50 of 0.4 nM.

Consider `CC(C)CCC(=O)N1CCC(c2ccc(NC(=O)C3CN(c4cccnc4)C3)cc2)CC1` [Example 116, N-{4-[1-(4-methylpentanoyl)piperidin-4-yl]phenyl}-1-(pyridin-3-yl)azetidine-3-carboxamide], for which 0.64 nM corresponded to half-maximal inhibition (IC50). This IC50 is about 1.6-fold higher than that of the compound before.

The compound `CC1(C(=O)N2CCC(c3ccc(NC(=O)C4CN(c5cccnc5)C4)cc3)CC2)CCCCC1` [Example 117, N-(4-{1-[(1-methylcyclohexyl)carbonyl]piperidin-4-yl}phenyl)-1-(pyridin-3-yl)azetidine-3-carboxamide] displayed an IC50 of 0.63 nM.

Turning to `CC(=O)N1CCC(c2ccc(NC(=O)C3CN(c4cccnc4)C3)cc2)CC1` [Example 118, N-[4-(1-acetylpiperidin-4-yl)phenyl]-1-(pyridin-3-yl)azetidine-3-carboxamide], the IC50 stood at 0.22 nM.

Regarding `O=C(Nc1ccc(C2CCN(C(=O)CC3CCCCC3)CC2)cc1)C1CN(c2cccnc2)C1` [Example 119, N-{4-[1-(cyclohexylacetyl)piperidin-4-yl]phenyl}-1-(pyridin-3-yl)azetidine-3-carboxamide], 0.19 nM corresponded to half-maximal inhibition (IC50).

Turning to `CC(=O)N[C@@H](CC(C)C)C(=O)N1CCC(c2ccc(NC(=O)C3CN(c4cccnc4)C3)cc2)CC1` [Example 120, N-{4-[1-(N-acetyl-L-leucyl)piperidin-4-yl]phenyl}-1-(pyridin-3-yl)azetidine-3-carboxamide], half-maximal inhibition (IC50) required 0.23 nM. This IC50 and that of the compound before are within 1.5-fold of each other.

Turning to `CCC(=O)N1CCC(c2ccc(NC(=O)C3CN(c4cccnc4)C3)cc2)CC1` [Example 121, N-[4-(1-propanoylpiperidin-4-yl)phenyl]-1-(pyridin-3-yl)azetidine-3-carboxamide], the IC50 turned out to be 0.62 nM.

In the case of `O=C(Nc1ccc(C2CCN(C(=O)CC(F)(F)F)CC2)cc1)C1CN(c2cccnc2)C1` [Example 122, 1-(pyridin-3-yl)-N-{4-[1-(3,3,3-trifluoropropanoyl)piperidin-4-yl]phenyl}azetidine-3-carboxamide], the midpoint of inhibition, the IC50, lay at 0.61 nM.

In turn, `COCCOCC(=O)N1CCC(c2ccc(NC(=O)C3CN(c4cccnc4)C3)cc2)CC1` [Example 123, N-(4-{1-[(2-methoxyethoxy)acetyl]piperidin-4-yl}phenyl)-1-(pyridin-3-yl)azetidine-3-carboxamide] had an IC50 of 1.03 nM.

Turning to `O=C(Nc1ccc(C2CCN(C(=O)CCN3CCOCC3)CC2)cc1)C1CN(c2cccnc2)C1` [Example 124, N-(4-{1-[3-(morpholin-4-yl)propanoyl]piperidin-4-yl}phenyl)-1-(pyridin-3-yl)azetidine-3-carboxamide], the IC50 was 1.44 nM.

With `CC(C)(C)C(=O)N1CCC(c2ccc(NC(=O)C3CN(c4cccnc4)C3)cc2)CC1` [Example 125, N-{4-[1-(2,2-dimethylpropanoyl)piperidin-4-yl]phenyl}-1-(pyridin-3-yl)azetidine-3-carboxamide], the IC50 was found to be 0.24 nM.

In the case of `Cc1ccc(C(=O)N2CCC(c3ccc(NC(=O)C4CN(c5cccnc5)C4)cc3)CC2)s1` [Example 126, N-(4-{1-[(5-methylthiophen-2-yl)carbonyl]piperidin-4-yl}phenyl)-1-(pyridin-3-yl)azetidine-3-carboxamide], it took 0.26 nM to reach half-maximal inhibition (IC50). This IC50 and that of the compound before are within 1.5-fold of each other.

Take `O=C(Nc1ccc(C2CCN(C(=O)c3cccs3)CC2)cc1)C1CN(c2cccnc2)C1` [Example 127, 1-(pyridin-3-yl)-N-{4-[1-(thiophen-2-ylcarbonyl)piperidin-4-yl]phenyl}azetidine-3-carboxamide]: half-maximal inhibition (IC50) required 0.14 nM.

Regarding `Cn1cccc1C(=O)N1CCC(c2ccc(NC(=O)C3CN(c4cccnc4)C3)cc2)CC1` [Example 128, N-(4-{1-[(1-methyl-1H-pyrrol-2-yl)carbonyl]piperidin-4-yl}phenyl)-1-(pyridin-3-yl)azetidine-3-carboxamide], the IC50 was 0.16 nM.

As for `O=C(Nc1ccc(C2CCN(C(=O)c3ccco3)CC2)cc1)C1CN(c2cccnc2)C1` [Example 129, N-{4-[1-(furan-2-ylcarbonyl)piperidin-4-yl]phenyl}-1-(pyridin-3-yl)azetidine-3-carboxamide], the IC50 is 0.16 nM.

`O=C(Nc1ccc(C2CCN(C(=O)CCN3CCCCC3)CC2)cc1)C1CN(c2cccnc2)C1` [Example 130, N-(4-{1-[3-(piperidin-1-yl)propanoyl]piperidin-4-yl}phenyl)-1-(pyridin-3-yl)azetidine-3-carboxamide] had an IC50 of 1.81 nM. Against the preceding compound, the IC50 is about 11-fold higher.

As for `CCOCC(=O)N1CCC(c2ccc(NC(=O)C3CN(c4cccnc4)C3)cc2)CC1` [Example 131, N-{4-[1-(ethoxyacetyl)piperidin-4-yl]phenyl}-1-(pyridin-3-yl)azetidine-3-carboxamide], the IC50 turned out to be 0.3 nM.

On to `CC(C)(C)CC(=O)N1CCC(c2ccc(NC(=O)C3CN(c4cccnc4)C3)cc2)CC1` [Example 132, N-{4-[1-(3,3-dimethylbutanoyl)piperidin-4-yl]phenyl}-1-(pyridin-3-yl)azetidine-3-carboxamide], for which the IC50 is 0.23 nM.

Take `CCC(C)(C)C(=O)N1CCC(c2ccc(NC(=O)C3CN(c4cccnc4)C3)cc2)CC1` [Example 133, N-{4-[1-(2,2-dimethylbutanoyl)piperidin-4-yl]phenyl}-1-(pyridin-3-yl)azetidine-3-carboxamide]: half-maximal inhibition (IC50) was put at 0.62 nM.

As for `CCCC(=O)N1CCC(c2ccc(NC(=O)C3CN(c4cccnc4)C3)cc2)CC1` [Example 134, N-[4-(1-butanoylpiperidin-4-yl)phenyl]-1-(pyridin-3-yl)azetidine-3-carboxamide], the IC50 stood at 0.64 nM. This IC50 and that of the compound before are within 1.5-fold of each other.

On to `COCC(=O)N1CCC(c2ccc(NC(=O)C3CN(c4cccnc4)C3)cc2)CC1` [Example 135, N-{4-[1-(methoxyacetyl)piperidin-4-yl]phenyl}-1-(pyridin-3-yl)azetidine-3-carboxamide], for which the IC50 was 0.3 nM.

The compound `O=C(Nc1ccc(C2CCN(C(=O)C3CCCCC3)CC2)cc1)C1CN(c2cccnc2)C1` [Example 136, N-{4-[1-(cyclohexylcarbonyl)piperidin-4-yl]phenyl}-1-(pyridin-3-yl)azetidine-3-carboxamide] displayed an IC50 of 0.23 nM.

`CC(C)CC(=O)N1CCC(c2ccc(NC(=O)C3CN(c4cccnc4)C3)cc2)CC1` [Example 137, N-{4-[1-(3-methylbutanoyl)piperidin-4-yl]phenyl}-1-(pyridin-3-yl)azetidine-3-carboxamide] gave an IC50 of 0.31 nM.

`O=C(Nc1ccc(C2CCN(C(=O)C3CCCC3)CC2)cc1)C1CN(c2cccnc2)C1` [Example 138, N-{4-[1-(cyclopentylcarbonyl)piperidin-4-yl]phenyl}-1-(pyridin-3-yl)azetidine-3-carboxamide] registered an IC50 of 0.23 nM. This IC50 and that of the compound before are within 1.5-fold of each other.
